From PubChem BioAssay AID1919007 (Molecular Pharmacology Branch, DTP, NCI, 2023)

System: A498 complex spheroids with HUVEC/MSC, growth
Test: Anticancer human tumor A498 cell line growth inhibition [AhR];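 also: seven day exposure starting three days after spheroid seeding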;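 as to viability, T/C: luminescence signal used as a surrogate for viable cells; luminescence viability scaled so 100% equals DMSO vehicle wells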
Settings: for IC50: curve of first compound; for viability, T/C: stronger effect = lower value
Procedure, shortened: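 Spheroids combined tumor cells with HUVEC endothelial cells and human MSCs as stroma. AhR antagonists were paired with standard or investigational drugs, each dosed in half-log steps down from near clinical Cmax, or from 10 microM where Cmax was unknown.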

[1] = second compound 0.1 µM, first compound 0.0316 µM
[2] = second compound 0.1 µM, first compound 0.1 µM
[3] = second compound 0.1 µM, first compound 0.316 µM
[4] = second compound 0.1 µM, first compound 1 µM
[5] = second compound 0.316 µM, first compound 0.0316 µM
[6] = second compound 0.316 µM, first compound 0.1 µM
[7] = second compound 0.316 µM, first compound 0.316 µM
[8] = second compound 0.316 µM, first compound 1 µM
[9] = second compound 1 µM, first compound 0.0316 µM
[10] = second compound 1 µM, first compound 0.1 µM
[11] = second compound 1 µM, first compound 0.316 µM
[12] = second compound 1 µM, first compound 1 µM
[13] = second compound 3.16 µM, first compound 0.0316 µM
[14] = second compound 3.16 µM, first compound 0.1 µM
[15] = second compound 3.16 µM, first compound 0.316 µM
[16] = second compound 3.16 µM, first compound 1 µM
[17] = second compound 10 µM, first compound 0.0316 µM
[18] = second compound 10 µM, first compound 0.1 µM
[19] = second compound 10 µM, first compound 0.316 µM
[20] = second compound 10 µM, first compound 1 µM
[21] = second compound 0.1 µM, first compound 3.16 µM
[22] = second compound 0.1 µM, first compound 10 µM
[23] = second compound 0.316 µM, first compound 3.16 µM
[24] = second compound 0.316 µM, first compound 10 µM
[25] = second compound 1 µM, first compound 3.16 µM
[26] = second compound 1 µM, first compound 10 µM
[27] = second compound 3.16 µM, first compound 3.16 µM
[28] = second compound 3.16 µM, first compound 10 µM
[29] = second compound 10 µM, first compound 3.16 µM
[30] = second compound 10 µM, first compound 10 µM

`CC1COCCN1c1cc(-c2ccnn2C)c2ccnc(-c3ccn[nH]3)c2n1` (stereo not given) + Cc1cncc(-c2nc(NCCc3c[nH]c4ccccc34)c3ncn(C(C)C)c3n2)c1 was tested, and the IC50 (second compound 0.1 µM) was 111 nM, the IC50 (second compound 0.316 µM) was 129 nM and the IC50 (second compound 1 µM) was 105 nM. The IC50 (second compound 3.16 µM) was 24.4 nM, the IC50 (second compound 10 µM) was < 3.16 nM and the viability, T/C (second compound 0.1 µM, first compound 0.00316 µM) was 94.3%. It also gave a viability, T/C (second compound 0.1 µM, first compound 0.01 µM) of 102%, a viability, T/C [1] of 90.6% and a viability, T/C [2] of 52.5%. It also gave a viability, T/C [3] of 24.5%, a viability, T/C [4] of 19.4% and a viability, T/C (second compound 0.316 µM, first compound 0.00316 µM) of 98.5%. The viability, T/C (second compound 0.316 µM, first compound 0.01 µM) was 103%, the viability, T/C [5] was 89% and the viability, T/C [6] was 57.4%. The viability, T/C [7] was 26%, the viability, T/C [8] was 20.5% and the viability, T/C (second compound 1 µM, first compound 0.00316 µM) was 91.3%. The viability, T/C (second compound 1 µM, first compound 0.01 µM) was 96.8%, the viability, T/C [9] was 81.5% and the viability, T/C [10] was 52.2%. For the same compound, the viability, T/C [11] was 23.5%, the viability, T/C [12] was 21.4% and the viability, T/C (second compound 3.16 µM, first compound 0.00316 µM) was 49.4%. It also gave a viability, T/C (second compound 3.16 µM, first compound 0.01 µM) of 50.1%, a viability, T/C [13] of 51.4% and a viability, T/C [14] of 41.2%. It also gave a viability, T/C [15] of 22.8%, a viability, T/C [16] of 19.5% and a viability, T/C (second compound 10 µM, first compound 0.00316 µM) of 3.71%. It also gave a viability, T/C (second compound 10 µM, first compound 0.01 µM) of 4.4%, a viability, T/C [17] of 6.04% and a viability, T/C [18] of 3.64%. It also gave a viability, T/C [19] of 4.9% and a viability, T/C [20] of 10.9%.

`CC1COCCN1c1cc(C2(S(C)(=N)=O)CC2)nc(-c2ccnc3[nH]ccc23)n1` (stereo not given) + Cc1cncc(-c2nc(NCCc3c[nH]c4ccccc34)c3ncn(C(C)C)c3n2)c1 showed an IC50 (second compound 0.1 µM) of 3550 nM, an IC50 (second compound 0.316 µM) of 2690 nM and an IC50 (second compound 1 µM) of 2260 nM. The IC50 (second compound 3.16 µM) was < 31.6 nM, the IC50 (second compound 10 µM) was < 31.6 nM and the viability, T/C [1] was 97.8%. For the same compound, the viability, T/C [2] was 98.7%, the viability, T/C [3] was 90.4% and the viability, T/C [4] was 81.9%. For the same compound, the viability, T/C [21] was 52.5%, the viability, T/C [22] was 23.1% and the viability, T/C [5] was 94.9%. The viability, T/C [6] was 102%, the viability, T/C [7] was 96.3% and the viability, T/C [8] was 78.5%. For the same compound, the viability, T/C [23] was 45.7%, the viability, T/C [24] was 27.5% and the viability, T/C [9] was 86.8%. The viability, T/C [10] was 92%, the viability, T/C [11] was 87.5% and the viability, T/C [12] was 68.2%. For the same compound, the viability, T/C [25] was 42.9%, the viability, T/C [26] was 23.4% and the viability, T/C [13] was 37.1%. The viability, T/C [14] was 37.2%, the viability, T/C [15] was 39.5% and the viability, T/C [16] was 35.5%. It also gave a viability, T/C [27] of 33.9%, a viability, T/C [28] of 21.9% and a viability, T/C [17] of 4.97%. The viability, T/C [18] was 6.89%, the viability, T/C [19] was 5.25% and the viability, T/C [20] was 5.47%. For the same compound, the viability, T/C [29] was 5.09% and the viability, T/C [30] was 9.27%.

Compound `COc1ccc([C@@H](O)c2cc(-c3ncnc4cc(N5CCOCC5)ccc34)c(F)cc2Cl)nn1` + Cc1cncc(-c2nc(NCCc3c[nH]c4ccccc34)c3ncn(C(C)C)c3n2)c1 has an IC50 (second compound 0.1 µM) of 477 nM, an IC50 (second compound 0.316 µM) of 549 nM and an IC50 (second compound 1 µM) of 434 nM. The IC50 (second compound 3.16 µM) was < 31.6 nM, the IC50 (second compound 10 µM) was < 31.6 nM and the viability, T/C [1] was 89.2%. The viability, T/C [2] was 86.9%, the viability, T/C [3] was 59% and the viability, T/C [4] was 30.6%. The viability, T/C [21] was 19.1%, the viability, T/C [22] was 10.1% and the viability, T/C [5] was 89.5%. For the same compound, the viability, T/C [6] was 85.9%, the viability, T/C [7] was 67% and the viability, T/C [8] was 31.1%. It also gave a viability, T/C [23] of 17.7%, a viability, T/C [24] of 11.8% and a viability, T/C [9] of 80.6%. For the same compound, the viability, T/C [10] was 85.1%, the viability, T/C [11] was 57.5% and the viability, T/C [12] was 26.6%. For the same compound, the viability, T/C [25] was 17.5%, the viability, T/C [26] was 12.4% and the viability, T/C [13] was 45.1%. It also gave a viability, T/C [14] of 49.3%, a viability, T/C [15] of 39.3% and a viability, T/C [16] of 25%. The viability, T/C [27] was 15.4%, the viability, T/C [28] was 11.6% and the viability, T/C [17] was 3.91%. For the same compound, the viability, T/C [18] was 4.22%, the viability, T/C [19] was 4.26% and the viability, T/C [20] was 3.54%. The viability, T/C [29] was 3.86% and the viability, T/C [30] was 8.65%.

`O=C(C=Cn1cnc(-c2cc(C(F)(F)F)cc(C(F)(F)F)c2)n1)NNc1cnccn1` + Cc1cncc(-c2nc(NCCc3c[nH]c4ccccc34)c3ncn(C(C)C)c3n2)c1 was tested, and the IC50 (second compound 0.1 µM) was 81.5 nM, the IC50 (second compound 0.316 µM) was 105 nM and the IC50 (second compound 1 µM) was 78.2 nM. For the same compound, the IC50 (second compound 3.16 µM) was 72.4 nM, the IC50 (second compound 10 µM) was < 9.49 nM and the viability, T/C (second compound 0.1 µM, first compound 0.00949 µM) was 86.3%. The viability, T/C (second compound 0.1 µM, first compound 0.03 µM) was 73.7%, the viability, T/C (second compound 0.1 µM, first compound 0.0949 µM) was 46.5% and the viability, T/C (second compound 0.1 µM, first compound 0.3 µM) was 30.3%. The viability, T/C (second compound 0.1 µM, first compound 0.949 µM) was 25.3%, the viability, T/C (second compound 0.1 µM, first compound 3 µM) was 26.6% and the viability, T/C (second compound 0.316 µM, first compound 0.00949 µM) was 87.2%. The viability, T/C (second compound 0.316 µM, first compound 0.03 µM) was 81.1%, the viability, T/C (second compound 0.316 µM, first compound 0.0949 µM) was 51.5% and the viability, T/C (second compound 0.316 µM, first compound 0.3 µM) was 30.9%. The viability, T/C (second compound 0.316 µM, first compound 0.949 µM) was 30.8%, the viability, T/C (second compound 0.316 µM, first compound 3 µM) was 22.2% and the viability, T/C (second compound 1 µM, first compound 0.00949 µM) was 84.8%. The viability, T/C (second compound 1 µM, first compound 0.03 µM) was 73.2%, the viability, T/C (second compound 1 µM, first compound 0.0949 µM) was 45.6% and the viability, T/C (second compound 1 µM, first compound 0.3 µM) was 27.9%. It also gave a viability, T/C (second compound 1 µM, first compound 0.949 µM) of 25%, a viability, T/C (second compound 1 µM, first compound 3 µM) of 24.6% and a viability, T/C (second compound 3.16 µM, first compound 0.00949 µM) of 69.3%. For the same compound, the viability, T/C (second compound 3.16 µM, first compound 0.03 µM) was 67.6%, the viability, T/C (second compound 3.16 µM, first compound 0.0949 µM) was 43.9% and the viability, T/C (second compound 3.16 µM, first compound 0.3 µM) was 30.1%. For the same compound, the viability, T/C (second compound 3.16 µM, first compound 0.949 µM) was 24.2%, the viability, T/C (second compound 3.16 µM, first compound 3 µM) was 23.2% and the viability, T/C (second compound 10 µM, first compound 0.00949 µM) was 3.95%. It also gave a viability, T/C (second compound 10 µM, first compound 0.03 µM) of 5.26%, a viability, T/C (second compound 10 µM, first compound 0.0949 µM) of 7.65% and a viability, T/C (second compound 10 µM, first compound 0.3 µM) of 6.47%. For the same compound, the viability, T/C (second compound 10 µM, first compound 0.949 µM) was 8.27% and the viability, T/C (second compound 10 µM, first compound 3 µM) was 11.1%.
